The results in this text go back to ChEMBL document CHEMBL4130372, “The antitrypanosomal and antitubercular activity of some nitro(triazole/imidazole)-based aromatic amines” (Eur J Med Chem, 2017).

Values after ≈ are worked out from the molar mass of the structure shown.

What all share (type): functional
In assay [1] the test system is Mycobacterium tuberculosis. The assay is described as follows: Antitubercular activity against Mycobacterium tuberculosis INH-R1 harboring katG Y155 truncated mutant after 5 days by fluorescence-based assay.
Assay [2] relates to Mycobacterium tuberculosis. The assay is described as follows: Antitubercular activity against Mycobacterium tuberculosis RIF-R1 harboring rpoB S522L mutant after 5 days by fluorescence-based assay.
For assay [3], the system named is Mycobacterium tuberculosis. The assay is described as follows: Antitubercular activity against Mycobacterium tuberculosis FQ-R1 harboring gyrB D94N mutant after 5 days by fluorescence-based assay.

The MIC is the lowest concentration that inhibits growth of the organism. The low end stands for inhibition by little substance, the high end for a need for much substance. Turning to `O=[N+]([O-])c1ncn(CCCCNc2ncnc3ccccc23)n1`, the results for the MIC in assay [1], in assay [2] and in assay [3] were 200 µM (≈ 62.7 µg/mL), more than 200 µM and more than 200 µM, respectively.

In the case of `O=[N+]([O-])c1nccn1CCCCNc1ccnc2c(Cl)cccc12`, the MIC in assay [1], in assay [2] and in assay [3] was more than 200 µM each time.

For the compound `NNC(=O)c1ccncc1` [ISONIAZID], the minimum inhibitory concentration (MIC) in assay [1] was more than 200 µM; in assay [2], 0.31 µM (≈ 0.0425 µg/mL); in assay [3], 0.35 µM (≈ 0.048 µg/mL).

Regarding `C[C@H]1COc2c(N3CCN(C)CC3)c(F)cc3c(=O)c(C(=O)O)cn1c23.C[C@H]1COc2c(N3CCN(C)CC3)c(F)cc3c(=O)c(C(=O)O)cn1c23.O` [LEVOFLOXACIN], the MIC was determined as 1.1 µM in assay [1], 0.85 µM in assay [2] and 14 µM in assay [3].

With `CO[C@H]1/C=C/O[C@@]2(C)Oc3c(C)c(O)c4c(O)c(c(/C=N/N5CCN(C)CC5)c(O)c4c3C2=O)NC(=O)/C(C)=C\C=C\[C@H](C)[C@H](O)[C@@H](C)[C@@H](O)[C@@H](C)[C@H](OC(C)=O)[C@@H]1C` [RIFAMPIN], the results for the MIC in assay [1], in assay [2] and in assay [3] were 0.012 µM (≈ 0.00988 µg/mL), 7.2 µM (≈ 5.93 µg/mL) and more than 0.04 µM, respectively.
